According to patent US20170191038A1, “TGFß SIGNALING INDEPENDENT NAÏVE INDUCED PLURIPOTENT STEM CELLS, METHODS OF MAKING AND USE” (HONG GUAN Ltd., priority 2014, published 2017):
Counter-ions that a name gives are not always drawn.

Key:
Assay type in all cases: cell-based, rhesus monkey (Macaca mulatta)
[1] = test system: Rhesus monkey primed iPSCs; test: Conversion of rhesus monkey primed iPSCs to naive iPSCs (conversion condition optimization, TRA-1-81/TBX3 double-positive dome-shaped colonies); details: for effect on pluripotency / dome-shaped colony formation during naive conversion: primed iPSCs under 2i/LIF-based conditions, Y27632 10 μM, GÖ6983 5 μM
Method: Rhesus monkey primed iPSCs were dissociated into single cells by accutase and reseeded on feeder cells. The converting medium with 4 ng/ml bFGF (R&D Systems), 10 ng/ml human LIF (Millipore), CHIR99021 (3 μM; Stemgent) and PD0325901 (0.5 μM; Stemgent) was changed daily. At approximately day 7 to day 10, dome-shaped colonies were selected and transferred onto fresh feeder cells. Traditional 2i/LIF conditions—10 ng/ml human LIF (Millipore), CHIR99021 (3 μM; Stemgent) and PD0325901 (0.5 μM; Stemgent) were also tested and served as negative control. • (c) Conversion Condition Optimization for Rhesus Monkey Naïve iPSCs
Rhesus monkey primed iPSCs were dissociated into single cells by accutase and reseeded on feeder cells. The basal culture medium with 4 ng/ml bFGF (R&D Systems), 10 ng/ml human LIF (Millipore), CHIR99021 (3 μM; Stemgent) and PD0325901 (0.5 μM; Stemgent) was changed daily. The small molecules tested for culture condition optimization were SB203580 (10 μM; Tocris), SP600125 (10 μM; Tocris), Y27632 (10 μM; Tocris) and GÖ6983 (5 μM; Tocris). After treatment for 8 days, cells were fixed and immunostained for TRA-1-81.
(§1) To detect ALP activity the cells were washed with phosphate-buffered saline three times and stained with BCIP/NBT (Promega) for 15 min. For immunofluorescence, the primary antibodies included those against SSEA-1 (1:50, Chemicon), SSEA-4 (1:20, Santa Cruz Biotechnology), TRA-1-60 (1:50, Santa Cruz Biotechnology), TRA-1-81 (1:50, Santa Cruz Biotechnology), NANOG (1:100, R&D Systems), TBX3 (1:200, Abcam), H3K27me3 (1:200, Millipore), GATA4 (1:200, Santa Cruz Biotechnology), OCT4 (1:200, Abcam) and SOX2 (1:200, Santa Cruz Biotechnology). The secondary antibodies were rhodamine-labeled donkey anti-mouse IgG (1:100, Santa Cruz Biotechnology), rhodamine-labeled donkey anti-rabbit IgG (1:100, Santa Cruz Biotechnology), rhodamine-labeled goat anti-mouse IgM (1:100, Santa Cruz Biotechnology) and rhodamine-labeled donkey anti-goat IgG (1:100, Santa Cruz Biotechnology). DAPI (Roche Applied Science) was used for nuclear staining.

[2] = test system: Rhesus monkey primed iPSCs; test: Signaling analysis of rhesus monkey primed iPSCs (TRA-1-81-positive colonies); details: hESCs medium; 5 days; Stattic 1 μM, SB431542 10 μM, SU5402 2 μM, TGF-β1 2 ng/ml
Method: (§2) Rhesus monkey primed iPSCs were maintained as described (Liu H et al., 2008). […] The tested signaling modulators were SU5402 (2 μM; Tocris), SB431542 (10 μM; Tocris), Stattic (1 μM; Tocris) and TGF-β1 (2 ng/ml, Peprotech). After treatment for 5 days, cells were fixed and immunostained for TRA-1-81.
as §1

[3] = test system: Rhesus monkey naïve iPSCs; test: Signaling analysis of rhesus monkey naïve iPSCs (TRA-1-81-positive dome-shaped colonies); details: optimized conversion conditions; 5 days; Stattic 1 μM, SB431542 10 μM, SU5402 2 μM, TGF-β1 2 ng/ml
Method: as §2, §1

| Compound | effect on pluripotency / dome-shaped colony formation during naive conversion [1] | self-renewal / pluripotency maintenance of primed iPSCs (TRA-1-81-positive colonies, words) [2] | self-renewal / pluripotency maintenance of naive iPSCs (TRA-1-81-positive dome-shaped colonies, words) [3] | conversion efficiency (TRA-1-81/TBX3 double-positive and dome-shaped colonies of total colonies) ([1]; bFGF (4 ng/ml) added to 2i/LIF conditions, primed iPSCs) |
| --- | --- | --- | --- | --- |
| COc1ccc2c(c1)c(C1=C(c3c[nH]c4ccccc34)C(=O)NC1=O)cn2CCCN(C)C [GO{umlaut over ( )} 6983, 3-[1-[3-(Dimethylamino)propyl]-5-methoxy-1H-indol-3-yl]-4-(1H-indol-3-yl)-1H-pyrrole-2,5-dione] | induced pronounced differentiation and reduced TRA-1-81 expression in the colonies |  |  |  |
| O=[N+]([O-])c1ccc2c(c1)S(=O)(=O)C=C2 [JAK/STAT3 inhibitor] |  | maintained their pluripotent properties | readily differentiated with greatly reduced expression of TRA-1-81 |  |
| O=C(NOC[C@H](O)CO)c1ccc(F)c(F)c1Nc1ccc(I)cc1F [PD0325901, N-[(2R)-2,3-Dihydroxypropoxy]-3,4-difluoro-2-[(2-fluoro-4-iodophenyl)amino]-benzamide] | essential for conversion and maintenance of TBX3/TRA-1-81 double-positive dome-shaped colonies |  |  |  |
| NC(=O)c1ccc(-c2nc(-c3ccccn3)c(-c3ccc4c(c3)OCO4)[nH]2)cc1 [SB431542] |  | devastating to primed iPSCs self-renewal | no effect on rhesus monkey naive iPSCs |  |
| Cc1c[nH]c(/C=C2\C(=O)Nc3ccccc32)c1CCC(=O)O [SU5402] |  | few TRA-1-81-positive colonies formed | few TRA-1-81-positive colonies formed |  |
| C[C@@H](N)[C@H]1CC[C@H](C(=O)Nc2ccncc2)CC1 [Y27632, (+)-(R)-trans-4-(1-aminoethyl)-N-(4-pyridyl)cyclohexanecarboxamide+++dihydrochloride] | induced pronounced differentiation and reduced TRA-1-81 expression in the colonies |  |  |  |
| TGF-β: transforming growth factor-β1 (2 ng/ml, Peprotech) |  |  | devastating to the self-renewal of naïve iPSCs |  |
| bFGF: recombinant basic fibroblast growth factor, protein factor | Dome-shaped colonies morphologically similar to mouse ESCs appeared |  |  | 8%-10% |
